Legend:
GLP-1 receptor = GLP-1 receptor (Homo sapiens, UniProt P43220); assay: Human GLP-1 receptor activation assay (CRE-luciferase); assay type: cell-based; set-up: host or cells: CHO-K1; details: for Emax: CHO-K1, 6 h, read-out: GLP-1 receptor Maximum activation (% vs GLP-1); for EC50: CHO-K1 cells transiently transfected, luciferase, 6 hours, 0.1% BSA
Experimental: (§1) Then, the resulting increased luciferase activity was evaluated as a measurement of the effect on each receptor activation.
(§2) For positive control, endogenous ligand GLP-1 or glucagon was used for respective evaluation. The above-mentioned acylated oxyntomodulin peptide analogs of Comparative Example 8-12 were synthesized and used as comparative examples.
(§3) After 3 hours of transfection, medium was exchanged to Alpha Minimal Essential Medium (α-MEM) comprising 10% fetal bovine serum (FBS). Next day, the medium was exchanged to α-MEM comprising the acylated oxyntomodulin peptide analog of the present invention and 0.1% bovine serum albumin (BSA). After 6 hours, dual luciferase assay reagent (Promega) was added in the same amount as the medium in which the cells were submerged, and firefly luciferase and Renilla luciferase activities were successively measured. Firefly luciferase activity values were corrected against Renilla luciferase activity to yield transfection efficiency.

glucagon receptor = glucagon receptor (Homo sapiens, UniProt P47871); assay: Human glucagon receptor activation assay (CRE-luciferase); assay type: cell-based; set-up: host or cells: CHO-K1; details: CHO-K1 cells transiently transfected; for Emax: 6 h, relative to glucagon, read-out: GCG receptor Maximum activation (% vs GCG); for EC50: 6 hours, 0.1% BSA, read-out: GCG receptor EC50
Experimental: as §1, §2, §3

in vivo = details: cynomolgus monkey, sc
Source text: Cynomolgus monkeys were used to evaluate the pharmacokinetics in monkeys of the acylated oxyntomodulin peptide analogs according to the present invention.

Sequence of glucagon receptor (P47871 26-477): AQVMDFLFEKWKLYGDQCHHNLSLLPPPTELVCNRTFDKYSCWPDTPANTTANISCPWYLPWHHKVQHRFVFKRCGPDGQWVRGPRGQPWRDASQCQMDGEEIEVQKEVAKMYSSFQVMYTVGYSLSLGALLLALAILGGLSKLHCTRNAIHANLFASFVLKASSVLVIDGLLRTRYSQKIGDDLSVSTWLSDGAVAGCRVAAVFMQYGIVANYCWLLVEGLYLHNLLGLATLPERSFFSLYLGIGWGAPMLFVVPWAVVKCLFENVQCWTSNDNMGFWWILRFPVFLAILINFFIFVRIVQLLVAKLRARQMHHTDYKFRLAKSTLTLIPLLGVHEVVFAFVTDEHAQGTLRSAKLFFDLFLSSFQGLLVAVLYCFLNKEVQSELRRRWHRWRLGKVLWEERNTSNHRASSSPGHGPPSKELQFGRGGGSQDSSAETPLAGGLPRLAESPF
Sequence of GLP-1 receptor (P43220 24-463): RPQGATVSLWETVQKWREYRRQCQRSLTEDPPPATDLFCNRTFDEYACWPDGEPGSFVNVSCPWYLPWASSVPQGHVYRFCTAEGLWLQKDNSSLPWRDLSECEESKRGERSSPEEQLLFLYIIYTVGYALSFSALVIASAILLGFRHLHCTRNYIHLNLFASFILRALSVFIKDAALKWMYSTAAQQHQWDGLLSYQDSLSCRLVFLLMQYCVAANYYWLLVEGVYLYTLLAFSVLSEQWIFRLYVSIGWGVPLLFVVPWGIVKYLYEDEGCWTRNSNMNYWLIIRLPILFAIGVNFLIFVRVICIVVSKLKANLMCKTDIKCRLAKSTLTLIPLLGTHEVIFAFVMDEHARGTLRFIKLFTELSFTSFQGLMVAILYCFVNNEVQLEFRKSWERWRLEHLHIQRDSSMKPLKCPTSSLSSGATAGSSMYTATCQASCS

Emax (GLP-1 receptor)	EC50 (GLP-1 receptor)	Emax (glucagon receptor)	EC50 (glucagon receptor)	half-life (in vivo; Monkey PK (S.C. half-life))	half-life (in vivo; monkey PK half-life)	SMILES
102%	< 0.1 nM	89.6%	< 0.1 nM	6 to 12 h	< 12 h	CCCCCCCCCCCCCCCCCC(=O)N[C@@H](CCC(=O)NCCOCCOCC(=O)NCCOCCOCC(=O)NCCCC[C@H](NC(=O)[C@H](CC(=O)O)NC(=O)[C@H](CO)NC(=O)[C@@H](NC(=O)[C@H](Cc1ccccc1)NC(=O)[C@@H](NC(=O)CNC(=O)[C@H](CCC(N)=O)NC(=O)C(C)(C)NC(=O)[C@@H](N)Cc1c[nH]cn1)[C@@H](C)O)[C@@H](C)O)C(=O)N[C@@H](CO)C(=O)N[C@@H](CCCCN)C(=O)N[C@@H](Cc1ccc(O)cc1)C(=O)N[C@@H](CC(C)C)C(=O)N[C@@H](CC(=O)O)C(=O)NC(C)(C)C(=O)N[C@@H](CCCNC(=N)N)C(=O)N[C@@H](CCCNC(=N)N)C(=O)N[C@@H](C)C(=O)N[C@@H](CCC(N)=O)C(=O)N[C@@H](CC(=O)O)C(=O)N[C@@H](Cc1ccccc1)C(=O)N[C@H](C(=O)N[C@@H](CCC(N)=O)C(=O)N[C@@H](Cc1c[nH]c2ccccc12)C(=O)N[C@@H](CC(C)C)C(=O)N[C@@H](CCSC)C(=O)N[C@@H](CC(N)=O)C(=O)N[C@H](C(=O)N[C@@H](CCCCN)C(=O)N[C@@H](CCC(=O)O)C(=O)N[C@@H](Cc1ccc(O)cc1)C(=O)N[C@@H](CCC(=O)O)C(=O)N[C@@H](CCCCNC(=O)COCCOCCNC(=O)COCCOCCNC(=O)COCCOCCNC(=O)CCCCCCCCCCCCCCC)C(=O)N[C@@H](CCC(=O)O)C(=O)N[C@@H](Cc1ccc(O)cc1)C(=O)N[C@@H](CCC(=O)O)C(=O)O)[C@@H](C)O)C(C)C)C(=O)O [Compound 12]
87.9%	0.1 to 1 nM	95.4%	≥ 1 nM	18 to 24 h	12 to 24 h	CCCCCCCCCCCCCCCCCC(=O)N[C@@H](CCC(=O)NCCOCCOCC(=O)NCCOCCOCC(=O)NCCCC[C@H](NC(=O)[C@H](CC(=O)O)NC(=O)[C@H](CO)NC(=O)[C@@H](NC(=O)[C@H](Cc1ccccc1)NC(=O)[C@@H](NC(=O)CNC(=O)[C@H](CCC(N)=O)NC(=O)C(C)(C)NC(=O)[C@@H](N)Cc1c[nH]cn1)[C@@H](C)O)[C@@H](C)O)C(=O)N[C@@H](CO)C(=O)N[C@@H](CCCCN)C(=O)N[C@@H](Cc1ccc(O)cc1)C(=O)N[C@@H](CC(C)C)C(=O)N[C@@H](CC(=O)O)C(=O)NC(C)(C)C(=O)N[C@@H](CCCNC(=N)N)C(=O)N[C@@H](CCCNC(=N)N)C(=O)N[C@@H](C)C(=O)N[C@@H](CCC(N)=O)C(=O)N[C@@H](CC(=O)O)C(=O)N[C@@H](Cc1ccccc1)C(=O)N[C@H](C(=O)N[C@@H](CCC(N)=O)C(=O)N[C@@H](Cc1c[nH]c2ccccc12)C(=O)N[C@@H](CC(C)C)C(=O)N[C@@H](CCSC)C(=O)N[C@@H](CC(N)=O)C(=O)N[C@H](C(=O)N[C@@H](CCCCN)C(=O)N[C@@H](CCC(=O)O)C(=O)N[C@@H](Cc1ccc(O)cc1)C(=O)N[C@@H](CCC(=O)O)C(=O)N[C@@H](CCCCNC(=O)[C@@H](N)CCCCNC(=O)CCCCCCCCCCCCCCCCC(=O)O)C(=O)N[C@@H](CCC(=O)O)C(=O)N[C@@H](Cc1ccc(O)cc1)C(=O)N[C@@H](CCC(=O)O)C(=O)O)[C@@H](C)O)C(C)C)C(=O)O [Compound 4]
92.8%	< 0.1 nM	98.5%	< 0.1 nM	6 to 12 h	< 12 h	CCCCCCCCCCCCCCCCCC(=O)N[C@@H](CCC(=O)NCCOCCOCC(=O)NCCOCCOCC(=O)NCCCC[C@H](NC(=O)[C@H](CC(=O)O)NC(=O)[C@H](CO)NC(=O)[C@@H](NC(=O)[C@H](Cc1ccccc1)NC(=O)[C@@H](NC(=O)CNC(=O)[C@H](CCC(N)=O)NC(=O)C(C)(C)NC(=O)[C@@H](N)Cc1c[nH]cn1)[C@@H](C)O)[C@@H](C)O)C(=O)N[C@@H](CO)C(=O)N[C@@H](CCCCN)C(=O)N[C@@H](Cc1ccc(O)cc1)C(=O)N[C@@H](CC(C)C)C(=O)N[C@@H](CC(=O)O)C(=O)NC(C)(C)C(=O)N[C@@H](CCCNC(=N)N)C(=O)N[C@@H](CCCNC(=N)N)C(=O)N[C@@H](C)C(=O)N[C@@H](CCC(N)=O)C(=O)N[C@@H](CC(=O)O)C(=O)N[C@@H](Cc1ccccc1)C(=O)N[C@H](C(=O)N[C@@H](CCC(N)=O)C(=O)N[C@@H](Cc1c[nH]c2ccccc12)C(=O)N[C@@H](CC(C)C)C(=O)N[C@@H](CCSC)C(=O)N[C@@H](CC(N)=O)C(=O)N[C@H](C(=O)N[C@@H](CCCCN)C(=O)N[C@@H](CCC(=O)O)C(=O)N[C@@H](Cc1ccc(O)cc1)C(=O)N[C@@H](CCC(=O)O)C(=O)N[C@@H](CCCCNC(=O)CCCCCCCCCCCCCCC(N)=O)C(=O)N[C@@H](CCC(=O)O)C(=O)N[C@@H](Cc1ccc(O)cc1)C(=O)N[C@@H](CCC(=O)O)C(=O)O)[C@@H](C)O)C(C)C)C(=O)O [Compound 11]
105%	< 0.1 nM	110%	< 0.1 nM	< 6 h	< 12 h	CCCCCCCCCCCCCCCCCC(=O)N[C@@H](CCC(=O)NCCOCCOCC(=O)NCCOCCOCC(=O)NCCCC[C@H](NC(=O)[C@H](CC(=O)O)NC(=O)[C@H](CO)NC(=O)[C@@H](NC(=O)[C@H](Cc1ccccc1)NC(=O)[C@@H](NC(=O)CNC(=O)[C@H](CCC(N)=O)NC(=O)C(C)(C)NC(=O)[C@@H](N)Cc1c[nH]cn1)[C@@H](C)O)[C@@H](C)O)C(=O)N[C@@H](CO)C(=O)N[C@@H](CCCCN)C(=O)N[C@@H](Cc1ccc(O)cc1)C(=O)N[C@@H](CC(C)C)C(=O)N[C@@H](CC(=O)O)C(=O)NC(C)(C)C(=O)N[C@@H](CCCNC(=N)N)C(=O)N[C@@H](CCCNC(=N)N)C(=O)N[C@@H](C)C(=O)N[C@@H](CCC(N)=O)C(=O)N[C@@H](CC(=O)O)C(=O)N[C@@H](Cc1ccccc1)C(=O)N[C@H](C(=O)N[C@@H](CCC(N)=O)C(=O)N[C@@H](Cc1c[nH]c2ccccc12)C(=O)N[C@@H](CC(C)C)C(=O)N[C@@H](CCSC)C(=O)N[C@@H](CC(N)=O)C(=O)N[C@H](C(=O)N[C@@H](CCCCN)C(=O)N[C@@H](CCC(=O)O)C(=O)N[C@@H](Cc1ccc(O)cc1)C(=O)N[C@@H](CCC(=O)O)C(=O)N[C@@H](CCCCNC(=O)CCCCCCCCCCCCC(N)=O)C(=O)N[C@@H](CCC(=O)O)C(=O)N[C@@H](Cc1ccc(O)cc1)C(=O)N[C@@H](CCC(=O)O)C(=O)O)[C@@H](C)O)C(C)C)C(=O)O [Compound 10]
83.8%	0.1 to 1 nM	89.1%	0.1 to 1 nM	12 to 18 h	12 to 24 h	CCCCCCCCCCCCCCCCCC(=O)N[C@@H](CCC(=O)NCCOCCOCC(=O)NCCOCCOCC(=O)NCCCC[C@H](NC(=O)[C@H](CC(=O)O)NC(=O)[C@H](CO)NC(=O)[C@@H](NC(=O)[C@H](Cc1ccccc1)NC(=O)[C@@H](NC(=O)CNC(=O)[C@H](CCC(N)=O)NC(=O)C(C)(C)NC(=O)[C@@H](N)Cc1c[nH]cn1)[C@@H](C)O)[C@@H](C)O)C(=O)N[C@@H](CO)C(=O)N[C@@H](CCCCN)C(=O)N[C@@H](Cc1ccc(O)cc1)C(=O)N[C@@H](CC(C)C)C(=O)N[C@@H](CC(=O)O)C(=O)NC(C)(C)C(=O)N[C@@H](CCCNC(=N)N)C(=O)N[C@@H](CCCNC(=N)N)C(=O)N[C@@H](C)C(=O)N[C@@H](CCC(N)=O)C(=O)N[C@@H](CC(=O)O)C(=O)N[C@@H](Cc1ccccc1)C(=O)N[C@H](C(=O)N[C@@H](CCC(N)=O)C(=O)N[C@@H](Cc1c[nH]c2ccccc12)C(=O)N[C@@H](CC(C)C)C(=O)N[C@@H](CCSC)C(=O)N[C@@H](CC(N)=O)C(=O)N[C@H](C(=O)N[C@@H](CCCCN)C(=O)N[C@@H](CCC(=O)O)C(=O)N[C@@H](Cc1ccc(O)cc1)C(=O)N[C@@H](CCC(=O)O)C(=O)N[C@@H](CCCCNC(=O)[C@@H](N)CCCCNC(=O)COCCOCCNC(=O)COCCOCCNC(=O)COCCOCCNC(=O)CC[C@H](NC(=O)CCCCCCCCCCCCCCCCC(=O)O)C(=O)O)C(=O)N[C@@H](CCC(=O)O)C(=O)N[C@@H](Cc1ccc(O)cc1)C(=O)N[C@@H](CCC(=O)O)C(=O)O)[C@@H](C)O)C(C)C)C(=O)O [Compound 6]
93.6%	0.1 to 1 nM	99.4%	0.1 to 1 nM	18 to 24 h	12 to 24 h	CCCCCCCCCCCCCCCCCC(=O)N[C@@H](CCC(=O)NCCOCCOCC(=O)NCCOCCOCC(=O)NCCCC[C@H](NC(=O)[C@H](CC(=O)O)NC(=O)[C@H](CO)NC(=O)[C@@H](NC(=O)[C@H](Cc1ccccc1)NC(=O)[C@@H](NC(=O)CNC(=O)[C@H](CCC(N)=O)NC(=O)C(C)(C)NC(=O)[C@@H](N)Cc1c[nH]cn1)[C@@H](C)O)[C@@H](C)O)C(=O)N[C@@H](CO)C(=O)N[C@@H](CCCCN)C(=O)N[C@@H](Cc1ccc(O)cc1)C(=O)N[C@@H](CC(C)C)C(=O)N[C@@H](CC(=O)O)C(=O)NC(C)(C)C(=O)N[C@@H](CCCNC(=N)N)C(=O)N[C@@H](CCCNC(=N)N)C(=O)N[C@@H](C)C(=O)N[C@@H](CCC(N)=O)C(=O)N[C@@H](CC(=O)O)C(=O)N[C@@H](Cc1ccccc1)C(=O)N[C@H](C(=O)N[C@@H](CCC(N)=O)C(=O)N[C@@H](Cc1c[nH]c2ccccc12)C(=O)N[C@@H](CC(C)C)C(=O)N[C@@H](CCSC)C(=O)N[C@@H](CC(N)=O)C(=O)N[C@H](C(=O)N[C@@H](CCCCN)C(=O)N[C@@H](CCC(=O)O)C(=O)N[C@@H](Cc1ccc(O)cc1)C(=O)N[C@@H](CCC(=O)O)C(=O)N[C@@H](CCCCNC(=O)COCCOCCNC(=O)COCCOCCNC(=O)COCCOCCNC(=O)CC[C@H](NC(=O)CCCCCCCCCCCCCCCCC(=O)O)C(=O)O)C(=O)N[C@@H](CCC(=O)O)C(=O)N[C@@H](Cc1ccc(O)cc1)C(=O)N[C@@H](CCC(=O)O)C(=O)O)[C@@H](C)O)C(C)C)C(=O)O [Compound 5]

Source: US20230220035A1 (DONG-A ST CO., LTD., published 2023)
